Source: US12702686B2, “Antimicrobial therapy” (priority 2021, dated 2026)
Where no end group is shown, it is not given here.

Experiments:
[1] = system: Primary normal human keratinocytes (NHEK); assay: LDH release cytotoxicity in keratinocytes; assay type: cell-based; conditions: 24 h, increasing concentrations
Protocol: NHEKs (ThermoFisher) were cultured in EpiLife medium containing 60 μM CaCl2) (ThermoFisher) supplemented with 1× human keratinocyte growth supplement (ThermoFisher) and 1× Antibiotic Antimycotic (Millipore Sigma) at 37° C., 5% CO 2. All experiments performed on NHEKs were between passages 3 and 5 with cells at 70-80% confluency.

S. pseudintermedius ST71 = assay: Minimum inhibitory concentration, broth micro dilution; assay type: cell-based, Staphylococcus pseudintermedius; conditions: synthetic peptides, 18 h incubation
Protocol: MIC values were determined using a broth micro dilution method. Bacterial cells were grown to mid-late log phase, to an OD600 nm value of roughly 1.0 for each bacterial strain and then normalized to 1×10^7 CFU/mL. The PSMβ peptides or butanol extracts were dissolved in DMSO to a stock concentration of 10 mg/ml. The stock concentrations of antibiotics that were water-soluble were prepared with H2O or 100% ethanol if water-insoluble. The 1×10^7 CFU/ml bacterial cultures (10 μl) were aliquoted into 96-well microtiter plates and mixed with 95 μL of media with or without 2-fold dilutions of the conditioned supernatant, PSMβ peptides, butanol extracts or antibiotics and incubated for 16-18 h at 30° C. with shaking at 250 rpm. Growth inhibition was determined by measuring the OD600 nm readings of each well using a microplate reader (SpectraMax iD3, Molecular Devices). The MIC of each bacterial strain was determined by the lowest peptide concentration that inhibited more than 80% bacterial growth.

Molecule	cytotoxicity by LDH release [1]	concentration at which S. pseudintermedius growth was inhibited (S. pseudintermedius ST71) [µg/mL]
CC[C@H](C)[C@H](NC(=O)[C@H](Cc1c[nH]c2ccccc12)NC(=O)[C@H](CCCCN)NC(=O)[C@@H](NC(=O)[C@H](CC(C)C)NC(=O)[C@H](CC(=O)O)NC(=O)CNC(=O)[C@@H](NC(=O)[C@@H](NC(=O)[C@H](CO)NC(=O)[C@@H](NC(=O)[C@@H](NC(=O)[C@H](CC(=O)O)NC(=O)[C@H](C)NC(=O)[C@H](C)NC(=O)[C@H](CCSC)NC=O)[C@@H](C)CC)[C@@H](C)CC)[C@@H](C)O)[C@@H](C)CC)C(C)C)C(=O)N[C@H](C(=O)N[C@@H](CC(=O)O)C(=O)N[C@H](C(=O)N[C@H](C(=O)N[C@@H](CC(N)=O)C(=O)N[C@@H](CCCCN)C(=O)N[C@@H](Cc1ccccc1)C(=O)N[C@@H](CCCCN)C(=O)N[C@@H](CCCCN)C(=O)O)C(C)C)[C@@H](C)O)[C@@H](C)CC [PSMγ]	highly cytotoxic	–
Non-Formyl-MSKLTRVIVTSIMTVGFLTATLGLTAGNADAKLEGNGTLSQKQYQRLASQQF (H-MSKLTRVIVTSIMTVGFLTATLGLTAGNADAKLEGNGTLSQKQYQRLASQQF; listed as Staphylococcus felis) [EF-hand domain-containing peptide]	–	> 200
